Experimental data published in patent US10787450B2 (BRISTOL-MYERS SQUIBB COMPANY, priority 2016, dated 2020).
Counter-ions that a name gives are not always drawn.

What follows are compounds tested against ROCK2 (Homo sapiens (Human), UniProt O75116) (assay: ROCK2 kinase inhibition assay (FITC peptide substrate, LABCHIP 3000 Reader)). Conditions: 5 μM ATP, 1.5 μM peptide substrate.
Format: biochemical
Summary of the method: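 IC50 derived by curve fitting of dose-response inhibition, read as separation of phosphorylated from unphosphorylated FITC peptide (1.5 μM) after EDTA stop. Buffer: HEPES pH 7.5, MgCl2, Brij-35, DTT; ATP 5 μM; final DMSO <2%; reaction initiated by Rho kinase addition.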

ROCK2, sequence (O75116 whole entry, species assumed): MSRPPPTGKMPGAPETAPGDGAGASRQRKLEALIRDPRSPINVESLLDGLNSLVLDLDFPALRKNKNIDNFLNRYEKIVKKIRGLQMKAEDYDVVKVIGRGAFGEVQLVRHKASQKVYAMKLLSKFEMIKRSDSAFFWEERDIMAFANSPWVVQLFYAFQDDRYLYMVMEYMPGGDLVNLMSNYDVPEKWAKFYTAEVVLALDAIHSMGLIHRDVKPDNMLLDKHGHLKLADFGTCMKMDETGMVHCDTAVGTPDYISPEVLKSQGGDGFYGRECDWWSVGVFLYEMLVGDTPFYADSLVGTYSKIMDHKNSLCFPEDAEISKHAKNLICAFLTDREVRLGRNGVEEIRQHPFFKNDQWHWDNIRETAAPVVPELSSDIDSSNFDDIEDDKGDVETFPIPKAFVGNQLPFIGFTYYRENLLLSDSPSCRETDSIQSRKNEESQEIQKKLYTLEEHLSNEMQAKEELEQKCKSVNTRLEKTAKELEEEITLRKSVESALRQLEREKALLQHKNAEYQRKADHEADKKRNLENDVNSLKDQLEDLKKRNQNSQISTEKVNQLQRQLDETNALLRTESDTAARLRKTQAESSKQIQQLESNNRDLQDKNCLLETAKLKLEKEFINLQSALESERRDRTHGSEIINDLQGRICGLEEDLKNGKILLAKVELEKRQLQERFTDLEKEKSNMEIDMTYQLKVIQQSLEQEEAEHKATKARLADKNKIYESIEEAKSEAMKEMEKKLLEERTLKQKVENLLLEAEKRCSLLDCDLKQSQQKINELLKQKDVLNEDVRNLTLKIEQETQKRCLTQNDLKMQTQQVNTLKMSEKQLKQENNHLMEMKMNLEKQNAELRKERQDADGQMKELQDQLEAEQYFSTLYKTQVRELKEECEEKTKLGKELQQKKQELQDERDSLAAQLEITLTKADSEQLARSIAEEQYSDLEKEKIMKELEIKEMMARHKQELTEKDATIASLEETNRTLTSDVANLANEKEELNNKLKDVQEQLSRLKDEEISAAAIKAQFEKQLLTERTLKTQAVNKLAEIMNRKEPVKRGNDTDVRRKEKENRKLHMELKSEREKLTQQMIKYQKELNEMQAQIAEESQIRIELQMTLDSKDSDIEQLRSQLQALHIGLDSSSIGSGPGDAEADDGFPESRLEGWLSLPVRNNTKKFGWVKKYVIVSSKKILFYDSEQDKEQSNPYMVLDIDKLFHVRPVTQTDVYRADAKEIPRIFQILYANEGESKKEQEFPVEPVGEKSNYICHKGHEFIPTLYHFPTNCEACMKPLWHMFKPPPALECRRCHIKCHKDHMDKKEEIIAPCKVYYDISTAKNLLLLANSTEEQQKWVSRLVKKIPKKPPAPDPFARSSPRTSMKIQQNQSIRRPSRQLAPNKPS

SMILES	IC50 [nM]
CCc1nc(N2CC3(CCN(CC(C)(C)O)CC3)N(Cc3cccc(OC)c3)C2=O)ccc1-c1cn[nH]c1 [Example 152, 3-(6-ethyl-5-(1H-pyrazol-4-yl)pyridin-2-yl)-8-(2-hydroxy-2-methylpropyl)-1-(3-methoxybenzyl)-1,3,8-triazaspiro[4.5]decan-2-one]	< 3
COc1cccc(CN2C(=O)N(c3ccc(-c4cn[nH]c4)cc3)CC23CCN(C(=O)c2ccc4cc[nH]c4c2)CC3)c1 [Example 179, 3-(4-(1H-pyrazol-4-yl)phenyl)-8-(1H-indole-6-carbonyl)-1-(3-methoxybenzyl)-1,3,8-triazaspiro[4.5]decan-2-one]	3 to 30
COc1cccc(CN2C(=O)N(c3ccc(-c4cn[nH]c4)cn3)CC23CCNCC3)c1 [Example 73, 3-(5-(1H-pyrazol-4-yl)pyridin-2-yl)-1-(3-methoxybenzyl)-1,3,8-triazaspiro[4.5]decan-2-one]	3 to 30
CCc1nc(N2CC3(CCN(CC(C)(C)O)CC3)N(Cc3cc(F)cc(OC)c3)C2=O)ccc1-c1cn[nH]c1 [Example 155, 3-(6-ethyl-5-(1H-pyrazol-4-yl)pyridin-2-yl)-1-(3-fluoro-5-methoxybenzyl)-8-(2-hydroxy-2-methylpropyl)-1,3,8-triazaspiro[4.5]decan-2-one]	< 3
CCc1nc(N2CC3(CCN(C(=O)OC)CC3)N(Cc3cc(F)cc(OC)c3)C2=O)ccc1-c1cn[nH]c1 [Example 107, methyl 3-(6-ethyl-5-(1H-pyrazol-4-yl)pyridin-2-yl)-1-(3-fluoro-5-methoxybenzyl)-2-oxo-1,3,8-triazaspiro[4.5]decane-8-carboxylate]	< 3
O=C1N(c2ccc(-c3cn[nH]c3)cc2)CC2(CCOCC2)N1Cc1ccc(Cl)c(Cl)c1 [Example 19, 3-(4-(1H-pyrazol-4-yl)phenyl)-1-(3,4-dichlorobenzyl)-8-oxa-1,3-diazaspiro[4.5]decan-2-one]	30 to 250
CCN1CCC2(CC1)CN(c1ccc(-c3cn[nH]c3)cc1)C(=O)N2Cc1cccc(OC)c1 [Example 122, 3-(4-(1H-pyrazol-4-yl)phenyl)-8-ethyl-1-(3-methoxybenzyl)-1,3,8-triazaspiro[4.5]decan-2-one]	< 3
O=C1N(c2ccc(-c3cn[nH]c3)cc2)CC2(CCNCC2)N1Cc1ccccc1F [Example 63, 3-(4-(1H-pyrazol-4-yl)phenyl)-1-(2-fluorobenzyl)-1,3,8-triazaspiro[4.5]decan-2-one]	3 to 30
COc1nc(N2CC3(CCN(C(=O)CN(C)C)CC3)N(Cc3cccc(F)c3C)C2=O)ccc1-c1cn[nH]c1 [Example 225, 8-(2-(dimethylamino)acetyl)-1-(3-fluoro-2-methylbenzyl)-3-(6-methoxy-5-(1H-pyrazol-4-yl)pyridin-2-yl)-1,3,8-triazaspiro[4.5]decan-2-one]	< 3
COc1cccc(CN2C(=O)N(c3ncc(-c4cn[nH]c4)c(OC)n3)CC23CCN(C(=O)OC(C)(C)C)CC3)c1 [Example 56, tert-butyl 3-(4-methoxy-5-(1H-pyrazol-4-yl)pyrimidin-2-yl)-1-(3-methoxybenzyl)-2-oxo-1,3,8-triazaspiro[4.5]decane-8-carboxylate]	3 to 30
COc1cccc(CN2C(=O)N(c3ccc(-c4cn[nH]c4)cc3)CC23CCN(C(C)=O)CC3)c1 [Example 76, 3-(4-(1H-pyrazol-4-yl)phenyl)-8-acetyl-1-(3-methoxybenzyl)-1,3,8-triazaspiro[4.5]decan-2-one]	< 3
O=C1N(c2ccc(-c3cn[nH]c3)cc2)CC2(CCNCC2)N1Cc1cccc(OCC2CC2)c1 [Example 60, 3-(4-(1H-pyrazol-4-yl)phenyl)-1-(3-(cyclopropylmethoxy)benzyl)-1,3,8-triazaspiro[4.5] decan-2-one, TFA]	3 to 30
CCc1nc(N2CC3(CCN(C(C)=O)CC3)N(Cc3cccc(OC)c3)C2=O)ccc1-c1cn[nH]c1 [Example 88, 8-acetyl-3-(6-ethyl-5-(1H-pyrazol-4-yl)pyridin-2-yl)-1-(3-methoxybenzyl)-1,3,8-triazaspiro[4.5]decan-2-one]	< 3
CC(=O)N1CCC2(CC1)CN(c1ccc(-c3cn[nH]c3)cc1)C(=O)N2Cc1cccc(F)c1C [Example 82, 3-(4-(1H-pyrazol-4-yl)phenyl)-8-acetyl-1-(3-fluoro-2-methylbenzyl)-1,3,8-triazaspiro[4.5]decan-2-one]	3 to 30
COc1cccc(CN2C(=O)N(c3ccc(-c4cn[nH]c4)cn3)CC23CCN(C(=O)OC(C)(C)C)CC3)c1 [Example 51, tert-butyl 3-(5-(1H-pyrazol-4-yl)pyridin-2-yl)-1-(3-methoxybenzyl)-2-oxo-1,3,8-triazaspiro[4.5]decane-8-carboxylate]	3 to 30
CCc1nc(N2CC3(CCN(C(=O)C(F)F)CC3)N(Cc3cccc(OC)c3)C2=O)ccc1-c1cn[nH]c1 [Example 183, 8-(2,2-difluoroacetyl)-3-(6-ethyl-5-(1H-pyrazol-4-yl)pyridin-2-yl)-1-(3-methoxybenzyl)-1,3,8-triazaspiro[4.5]decan-2-one]	< 3

SMILES	IC50 [nM]
CCc1nc(N2CC3(CCN(CCC(F)(F)F)CC3)N(Cc3cc(F)cc(OC)c3)C2=O)ccc1-c1cn[nH]c1 [Example 128, 3-(6-ethyl-5-(1H-pyrazol-4-yl)pyridin-2-yl)-1-(3-fluoro-5-methoxybenzyl)-8-(3,3,3-tnfluoropropyl)-1,3,8-triazaspiro[4.5]decan-2-one]	3 to 30
COc1cccc(CN2C(=O)N(c3ccc(-c4cn[nH]c4)c(OC)n3)CC23CCN(CC(F)F)CC3)c1 [Example 135, 8-(2,2-difluoroethyl)-3-(6-methoxy-5-(1H-pyrazol-4-yl)pyridin-2-yl)-1-(3-methoxybenzyl)-1,3,8-triazaspiro[4.5]decan-2-one]	< 3
CCc1nc(N2CC3(CCN(C(=O)CO)CC3)N(Cc3cccc(OC)c3)C2=O)ccc1-c1cn[nH]c1 [Example 184, 3-(6-ethyl-5-(1H-pyrazol-4-yl)pyridin-2-yl)-8-(2-hydroxyacetyl)-1-(3-methoxybenzyl)-1,3,8-triazaspiro[4.5]decan-2-one]	< 3
COc1cccc(CN2C(=O)N(c3ncc(-c4cn[nH]c4)c(OC)n3)CC23CCN(CCC(F)(F)F)CC3)c1 [Example 134, 3-(4-methoxy-5-(1H-pyrazol-4-yl)pyrimidin-2-yl)-1-(3-methoxybenzyl)-8-(3,3,3-trifluoropropyl)-1,3,8-triazaspiro[4.5]decan-2-one]	30 to 250
COc1cc(F)cc(CN2C(=O)N(c3ccc(-c4cn[nH]c4)cc3)CC23CCN(CCO)CC3)c1 [Example 144, 3-(4-(1H-pyrazol-4-yl)phenyl)-1-(3-fluoro-5-methoxybenzyl)-8-(2-hydroxyethyl)-1,3,8-triazaspiro[4.5]decan-2-one]	< 3
COCCN1CCC2(CC1)CN(c1ccc(-c3cn[nH]c3)c(OC)n1)C(=O)N2Cc1cccc(F)c1C [Example 165, 1-(3-fluoro-2-methylbenzyl)-3-(6-methoxy-5-(1H-pyrazol-4-yl)pyridin-2-yl)-8-(2-methoxyethyl)-1,3,8-triazaspiro[4.5]decan-2-one]	< 3
COc1cccc(CN2C(=O)N(c3ccc(-c4cn[nH]c4)cn3)CC23CCN(C(=O)C(F)F)CC3)c1 [Example 194, 3-(5-(1H-pyrazol-4-yl)pyridin-2-yl)-8-(2,2-difluoroacetyl)-1-(3-methoxybenzyl)-1,3,8-triazaspiro[4.5]decan-2-one]	3 to 30
CNC(=O)N1CCC2(CC1)CN(c1ccc(-c3cn[nH]c3)cc1)C(=O)N2Cc1cccc(OC)c1 [Example 91, 3-(4-(1H-pyrazol-4-yl)phenyl)-1-(3-methoxybenzyl)-N-methyl-2-oxo-1,3,8-triazaspiro[4.5]decane-8-carboxamide]	< 3
COc1cc(F)cc(CN2C(=O)N(c3ccc(-c4cn[nH]c4)cc3)CC23CCNCC3)c1 [Example 58, 3-(4-(1H-pyrazol-4-yl)phenyl)-1-(3-fluoro-5-methoxybenzyl)-1,3,8-triazaspiro[4.5]decan-2-one, TFA]	< 3
O=C1N(c2ccc(-c3cn[nH]c3)cc2)CC2(CCNCC2)N1Cc1cccc(F)c1F [Example 64]	3 to 30
COc1cccc(CN2C(=O)N(c3ncc(-c4cn[nH]c4)c(OC)n3)CC23CCN(C(=O)CC(C)C)CC3)c1 [Example 214, 3-(4-methoxy-5-(1H-pyrazol-4-yl)pyrimidin-2-yl)-1-(3-methoxybenzyl)-8-(3-methylbutanoyl)-1,3,8-triazaspiro[4.5]decan-2-one]	3 to 30
CC(=O)N1CCC2(CC1)CN(c1ccc(-c3cn[nH]c3)cc1)C(=O)N2Cc1ccc(F)cc1F [Example 81, 3-(4-(1H-pyrazol-4-yl)phenyl)-8-acetyl-1-(2,4-difluorobenzyl)-1,3,8-triazaspiro[4.5]decan-2-one]	30 to 250
COc1cccc(NC2C(=O)N(c3ccc(-c4cn[nH]c4)cc3)CC23CN(C(C)=O)C3)c1 (centres unmarked) [Example 244, 6-(4-(1H-pyrazol-4-yl)phenyl)-2-acetyl-8-((3-methoxy-phenyl)amino)-2,6-diazaspiro [3.4]octan-7-one]	250 to 3000
COc1nc(N2CC3(CCN(C4COC4)CC3)N(Cc3cccc(F)c3C)C2=O)ccc1-c1cn[nH]c1 [Example 239, 1-(3-fluoro-2-methyl-benzyl)-3-(6-methoxy-5-(1H-pyrazol-4-yl)pyridin-2-yl)-8-(oxetan-3-yl)-1,3,8-triazaspiro [4.5]decan-2-one]	< 3
COc1cccc(CN2C(=O)N(c3ccc(-c4cn[nH]c4)cc3)CC23CCN(C(=O)OCC(C)(C)C)CC3)c1 [Example 97, neopentyl 3-(4-(1H-pyrazol-4-yl)phenyl)-1-(3-methoxybenzy1)-2-oxo-1,3,8-triazaspiro[4.5]decane-8-carboxylate]	3 to 30
COc1cccc(CN2C(=O)N(c3ccc(-c4cn[nH]c4)cc3)CC23CCN(C)CC3)c1 [Example 113, 3-(4-(1H-pyrazol-4-yl)phenyl)-1-(3-methoxybenzyl)-8-methyl-1,3,8-triazaspiro[4.5]decan-2-one]	< 3
